From patent publication US10233177B2, “TRPV1 vanilloid receptor antagonists with a bicyclic portion” (Serentrix LLC, priority 2010, dated 2019) come the findings set out here.

Read-outs that look alike come from different tables or passages of the source.

Series [1] can be described thus: Rectal temperature measurements in rats. Type of series: in vivo. To be noted: rat, 10 μmol/Kg intraperitoneal. As to the method:
Rectal Temperature Measurements in Rats
Body temperature was measured by a digital thermometer inserted at a depth of approximately 3 cm into the rectum of each animal (male SD rats, Charles River, Italy, 100 to 250 g). A pre-dose value of body temperature was measured prior to the administration of the test substance or vehicles. Animals were distributed among groups by the manual method to achieve the almost same mean values of body temperature of the groups based on the pre-dose value. All compounds were dissolved in 6% DMSO/6% Tween80 and then intraperitoneally (10 μmol/Kg/5 ml) administrated to rats.

The next series addresses TRPV1 (Rattus norvegicus (Rat), UniProt O35433). The series can be described thus: Ca2+ fluorescence measurements in cultured rat dorsal root ganglia neurons (capsaicin-induced calcium uptake). To be noted: rat DRG neurons; for inhibition at 0.3 µM: DRG neuron. Type of series: cell-based.
Series [2] deals with CCI-induced mechanical hyperalgesia. Nature of the series: CCI-induced mechanical hyperalgesia (Randall-Selitto paw pressure). The following applies: rat CCI, 30 μmol/kg oral. In kind it is in vivo. As to the method:
CCI-Induced Mechanical Hyperalgesia
Male SD rats (Charles River, Italy) weighing 250 g were anaesthetized with sodium pentobarbital (60 mg/kg, intraperitoneal (i.p.), 0.1 ml/10 g) and, under a dissecting microscope, the right common sciatic nerve was exposed at the level of the mid thigh and, proximal to the trifurcation of the nerve; four ligatures (4/0 chromic silk, Ethicon) were loosely tied around it, at about 0.5 mm spacing, until they elicited a brief twitch in the respective hind, taking care to preserve epineural circulation. Sham-operated animals (sciatic exposure without ligation) were used as controls. 14 days after the surgery, mechanical hyperalgesia was assessed using an analgesimeter (Ugo Basile, Italy, Randall-Selitto analgesic apparatus). This device generated a mechanical force on the affected paw and the nociceptive threshold was defined as the force (in g) at which the rat withdraws the paw (with a cut-off of 450 g). Two baseline measurement values were obtained 75 and 45 min before the actual test. After the second baseline measurement, animals were randomly allocated to the different treatment groups. Paw pressure test was performed 0, 75, 120, 165, 210 and 300 min after the oral administration of the compounds. All tested compounds were orally administrated (30 μmol/kg/10 ml) to rats by gavage.

Series [3] relates to CFA-induced thermal hyperalgesia. The series can be described thus: CFA-induced thermal hyperalgesia in rats (Hargreaves' test). Type of series: in vivo. The following applies: rat, 30 μmol/kg oral; read-out: reversal of CFA-induced thermal hyperalgesia (maximal reversal activity / % of reversion). The source says:
CFA-Induced Thermal Hyperalgesia in Rats
This method was used for the determination of acute nociceptive thermal threshold and combines a chemical stimulus and heat for measuring pain sensitivity. Male SD rats (Charles River, Italy) weighing 100 to 250 gr. were used. Anti-hyperalgesic effects were investigated by using the Hargreaves' test. Complete Freund's Adjuvant (CFA; Sigma, USA) was used to induce thermal hyperalgesia. CFA contains killed Mycobacterium tuberculosis and is designed to provide continuous release of antigens necessary for stimulating a strong, persistent immune response. This effect causes the reduction of the hind paw withdrawal response latency induced by heat during the Hargreaves' test. Thermal stimulation was performed 30, 60, 120 and 180 (240 min only if needed) minutes after the oral administration of the antagonists. During the CFA-induced thermal hyperalgesia experiments two different solubilization protocols were used: when items presented an amino group, a pH=2 aqueous solution of HCl and 2.5% Tween80 was used; otherwise molecules were suspended in 0.5% Methocel and 2.5% Tween80. Compounds were orally administrated (30 μmol/kg/10 ml) to rats 24 hours after the CFA treatment. CFA was injected into the plantar surface of a rat's hind paw at a fixed dose of 50 μl by the use of a micro syringe.

For series [4], the system named is CFA-induced tactile allodynia. Nature of the series: CFA-induced tactile allodynia in rats (von Frey filaments). In kind it is in vivo. To be noted: rat, 30 μmol/kg oral. As for the experimental part:
CFA-Induced Tactile Allodynia in Rats
Male SD rats (Charles River, Italy) weighing 100 to 250 g were put into a clean plastic cage on an elevated glass plate for 30 min before the test. This lets the animals accommodate to their new environment before testing. Complete Freund's adjuvant (CFA, 50 μl) was injected into the plantar surface of the right hind paw. Tactile stimulation was performed with von Frey filaments (from 0.07 to 26 g). All antagonists were orally administered 22 hours after to the CFA administration. Von Frey filaments were applied 30, 60, 120, 180, 240, 300 and 360 min after compound administrations. Median 50% (EG50) threshold of von Frey filaments was calculated by using the up-down method as previously described. All tested compounds were suspended in 0.5% Methocel and 2.5% Tween80 and orally administrated (30 μmol/kg/10 ml) to rats by gavage 24 hours after the CFA treatment. CFA was injected into the plantar surface of a rat's hind paw at a fixed dose of 50 μl by the use of a micro syringe.

Where [5] appears, read: 300 nM, read-out: abolition of capsaicin response at 300 nM.
The mark [6] stands for this setting: Table 1, formula IA-C, 300 nM against calcium uptake induced by 30 nM capsaicin, read-out: % inhibition at 300 nM.
The mark [7] stands for this setting: capsaicin-induced calcium uptake, read-out: inhibition of the calcium uptake.
Setting [8] is: Table 1, against capsaicin-evoked [Ca2+]i mobilization, read-out: IC50.
Where [9] appears, read: read-out: IC50 against capsaicin-evoked [Ca2+]i mobilization.

Chain of TRPV1 (O35433 whole entry): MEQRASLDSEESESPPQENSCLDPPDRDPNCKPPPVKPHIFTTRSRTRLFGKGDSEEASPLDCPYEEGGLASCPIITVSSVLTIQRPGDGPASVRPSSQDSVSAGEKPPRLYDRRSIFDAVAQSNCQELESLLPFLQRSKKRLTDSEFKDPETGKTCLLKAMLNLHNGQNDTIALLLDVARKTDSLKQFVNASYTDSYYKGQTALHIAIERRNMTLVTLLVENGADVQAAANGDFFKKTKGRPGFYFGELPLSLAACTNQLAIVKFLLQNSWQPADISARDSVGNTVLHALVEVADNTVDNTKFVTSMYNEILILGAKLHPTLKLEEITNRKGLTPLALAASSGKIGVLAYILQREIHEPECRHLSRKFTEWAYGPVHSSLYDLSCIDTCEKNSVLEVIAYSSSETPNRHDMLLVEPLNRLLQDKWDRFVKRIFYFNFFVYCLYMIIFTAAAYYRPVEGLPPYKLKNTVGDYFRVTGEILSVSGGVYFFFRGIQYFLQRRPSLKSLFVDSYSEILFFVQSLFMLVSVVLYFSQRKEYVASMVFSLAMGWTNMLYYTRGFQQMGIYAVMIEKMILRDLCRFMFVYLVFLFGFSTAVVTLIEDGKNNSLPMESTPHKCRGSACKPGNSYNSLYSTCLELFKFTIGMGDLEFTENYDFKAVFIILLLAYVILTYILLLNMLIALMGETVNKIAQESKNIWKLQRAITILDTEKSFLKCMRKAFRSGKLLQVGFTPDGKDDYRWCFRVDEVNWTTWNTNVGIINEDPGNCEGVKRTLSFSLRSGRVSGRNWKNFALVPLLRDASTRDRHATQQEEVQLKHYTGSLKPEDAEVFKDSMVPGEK

As to `O=C(NCc1ccc(C(F)(F)F)cc1N1CCCCC1)Nc1cccc2oc(=O)[nH]c12` [Example 31, 1-(4-(trifluoromethyl)-2-(piperidin-1-yl)benzyl)-3-(2,3-dihydro-2-oxobenzo[d]oxazol-4-yl)urea], the “effect on rectal body temperature” value in series [1] was −1.5 °C. In addition, the inhibition at 0.3 µM on TRPV1 (setting [5]) was around 100%; at TRPV1 (setting [6]) it was 100%; on TRPV1 (setting [7]), above 80%. The IC50 on TRPV1 (setting [8]) and on TRPV1 (setting [9]) was 1.9 nM each time. In addition, the “anti-hyperalgesic activity (in words)” value in series [2] was “relevant and long lasting anti-hyperalgesic activity”. In addition, in series [2], the “reversal of hyperalgesia within the first 2 hours” value is “at least 80%”. Also, the inhibition in vivo at 30 µmol/kg in series [3] was found to be 47%.
For the molecule `O=C1COc2c(cccc2NC(=O)NCc2ccc(Cl)cc2)N1` [Example 49, 1-(4-chlorobenzyl)-3-(3,4-dihydro-3-oxo-2H-benzo[b][1,4]oxazin-8-yl)urea], the “reversal of CFA-induced tactile allodynia” value in series [4] turned out to be 72%. The inhibition at 0.3 µM on TRPV1 (setting [6]) was 68%. Further, in series [2], the “anti-hyperalgesic activity (in words)” value is “relevant and long lasting anti-hyperalgesic activity”; the “reversal of hyperalgesia within the first 2 hours” value is “at least 80%”. In addition, the inhibition in vivo at 30 µmol/kg in series [3] amounted to 52%.
For the molecule `CN(C)c1cc(C(F)(F)F)ccc1CNC(=O)Nc1cccc2c1OCC(=O)N2` [Example 46, 1-(2-(dimethylamino)-4-(trifluoromethyl)benzyl)-3-(3,4-dihydro-3-oxo-2H-benzo[b][1,4]oxazin-8-yl)urea], the “effect on rectal body temperature” value in series [1] is “+0.8 °C”. The inhibition at 0.3 µM on TRPV1 (setting [5]) is around 100%; at TRPV1 (setting [6]), 94%; on TRPV1 (setting [7]), above 80%. For the same molecule, the IC50 on TRPV1 (setting [8]) and at TRPV1 (setting [9]) was 3 nM throughout. In series [2], the “anti-hyperalgesic activity (in words)” value was “relevant and long lasting anti-hyperalgesic activity”. Also, the “reversal of hyperalgesia within the first 2 hours” value in series [2] is “at least 80%”. Moreover, in series [3], the inhibition in vivo at 30 µmol/kg is 50%.
Take `O=C(NCc1ccc(Cl)cc1N1CCCC1)Nc1cccc2[nH]c(=O)[nH]c12` [Example 12, 1-(4-chloro-2-(pyrrolidin-1-yl)benzyl)-3-(2,3-dihydro-2-oxo-1H-benzo[d]imidazol-4-yl)urea]: the “duration of effect on CFA-induced tactile allodynia, post-treatment” value (“duration of effect” below) in series [4] is “up to 300 min”. The “reversal of CFA-induced tactile allodynia” value in series [4] came out at 62%. For the same molecule, the inhibition at 0.3 µM on TRPV1 (setting [6]) was 88%; on TRPV1 (setting [7]) it was above 80%. Further, the IC50 on TRPV1 (setting [8]) and at TRPV1 (setting [9]) was 6 nM throughout. Moreover, in series [3], the inhibition in vivo at 30 µmol/kg came out at 65%.
Regarding `O=C(NCc1ccc(C(F)(F)F)cc1N1CCCC1)Nc1cccc2[nH]c(=O)[nH]c12` [Example 5, 1-(4-(trifluoromethyl)-2-(pyrrolidin-1-yl)benzyl)-3-(2,3-dihydro-2-oxo-1H-benzo[d]imidazol-4-yl)urea], the “duration of effect” value in series [4] is listed as “up to 240 min”. Moreover, the “reversal of CFA-induced tactile allodynia” value in series [4] was determined as 60%. Besides, the inhibition at 0.3 µM on TRPV1 (setting [5]) was around 100%; on TRPV1 (setting [6]), 100%; at TRPV1 (setting [7]), above 80%. In addition, the IC50 on TRPV1 (setting [8]) and on TRPV1 (setting [9]) was 1 nM throughout. Further, the “anti-hyperalgesic activity (in words)” value in series [2] is “relevant and long lasting anti-hyperalgesic activity”. In addition, in series [2], the “reversal of hyperalgesia within the first 2 hours” value is “at least 80%”. The inhibition in vivo at 30 µmol/kg in series [3] was determined as 53%.
`O=C1COc2c(cccc2NC(=O)NCc2ccc(Cl)cc2N2CCCC2)N1` [Example 51, 1-(4-chloro-2-(pyrrolidin-1-yl)benzyl)-3-(3,4-dihydro-3-oxo-2H-benzo[b][1,4]oxazin-8-yl)urea]: in series [4], the “duration of effect” value is “shorter duration”. Also, the “reversal of CFA-induced tactile allodynia” value in series [4] came to 61%. Besides, the inhibition at 0.3 µM was around 100% at TRPV1 (setting [5]), 100% at TRPV1 (setting [6]) and above 80% on TRPV1 (setting [7]). In addition, the IC50 is 0.1 nM on TRPV1 (setting [8]) and 1.8 nM on TRPV1 (setting [9]). For the same molecule, the inhibition in vivo at 30 µmol/kg in series [3] came to 30%.

A word on the IC50: it is the concentration at which inhibition is half-maximal.
